Measurements reported in patent publication US11897961B2, “Anti-CD123 antibodies and conjugates and derivatives thereof” (IMMUNOGEN, INC., priority 2015, dated 2024).

Tests used:
[1] = tested on: EOL-1 cells; assay: EOL-1 subcutaneous model in athymic nude mice, third study
[2] = tested on: normal blood cells / normal progenitor cells versus AML progenitors; assay: Cytotoxicity on normal blood / normal progenitor cells versus AML progenitors; assay type: cell-based, human; conditions: FIG. 11E and FIG. 19
[3] = tested on: TF-1 cells; assay: Proliferation of TF-1 cells grown in the presence of GM-CSF (IL-3-dependence control); assay type: cell-based, human; conditions: GM-CSF 2 ng/mL
Procedure: (§1) The ability of anti-CD123 antibodies to inhibit IL3-mediated signaling and proliferation was examined in vitro using the erythroleukemia cell line TF-1 that can proliferate only in the presence of one of the following growth factors, either IL-3 or GM-CSF. TF-1 cells were cultured in the complete RPMI medium (RPMI-1640, 10% fetal bovine serum and 50 μg/mL gentamicin sulfate; all reagents were from Invitrogen) supplemented with GM-CSF (2 ng/mL). Prior to setting up the proliferation assays, the cells were washed and then starved of the growth factors overnight. […] TF-1 cells were plated at 6,000 cells per well in the complete RPMI medium in either the presence or absence of 10 μg/mL of an anti-CD123 antibody. A growth factor, either IL-3 (1 ng/mL) or GM-CSF (2 ng/mL), was added to the cells to initiate cell proliferation. […] The relative numbers of viable cells in each well were determined by the colorimetric WST-8 assay (Dojindo Molecular Technologies, Inc., Rockville, MD, US). WST-8 is reduced by dehydrogenases in viable cells to an orange formazan product that is soluble in tissue culture medium. The amount of formazan produced is directly proportional to the number of viable cells. […] Then the absorbance was measured on a plate-reader spectrophotometer in the dual wavelength mode 450 nm/650 nm, and the absorbance at the 650 nm (non-specific light scattering by cells) was subtracted from that at the 450 nm.

[4] = tested on: TF-1 cells; assay: Inhibition of IL-3-dependent proliferation of TF-1 cells (WST-8); assay type: cell-based, human; conditions: dose-response
Procedure: as §1, with “US).” for “US). WST-8 is reduced by dehydrogenases in viable cells to an orange formazan product that is soluble in tissue culture medium. The amount of formazan produced is directly proportional to the number of viable cells.”
TF-1 cells were plated at 6,000 cells per well in 100 μL culture medium. […] Relative cell number in each well was determined by WST-8 assay as described above. […]

Nc1ncn([C@@H]2O[C@H](CO)[C@@H](O)[C@H]2O)c(=O)n1 [Azacitidine]
% T/C (Day 16) ([1]; 3.75 mg/kg, q3d × 5, i.p.): 59%
CR ([1]; 3.75 mg/kg, q3d × 5, i.p.): 0/8
PR ([1]; 3.75 mg/kg, q3d × 5, i.p.): 0/8
Result ([1]; 3.75 mg/kg, q3d × 5, i.p.): Inactive

gemtuzumab ozogamicin [Mylotarg]
fold difference in cytotoxicity between normal blood/progenitor cells and AML progenitor cells [2]: 10 fold

Nc1ccn([C@@H]2O[C@H](CO)[C@@H](O)[C@@H]2O)c(=O)n1 [Cytarabine]
% T/C (Day 16) ([1]; 75 mg/kg, qd × 5, i.p.): 84%
CR ([1]; 75 mg/kg, qd × 5, i.p.): 0/8
PR ([1]; 75 mg/kg, qd × 5, i.p.): 0/8
Result ([1]; 75 mg/kg, qd × 5, i.p.): Inactive

B1: muCD123-6: murine anti-CD123 monoclonal antibody, HCVR SEQ ID NO: 28, LCVR SEQ ID NO: 29 (antibody, V domains shown)
VH: EFQLQQSGPELVKPGASVKMSCKASGYIFTSSIMHWMKQKPGQGLEWIGYIKPYNDGTKYNEKFKGKATLTSDKSSSTANMELNSLTSEDSAVYYCAREGGNDYYDTMDYWGQGTSVTVSS
VL: DIKMTQSPSSMYASLGERVTITCKASQDINSYLSWFQQKPGKSPKTLIYRVNRLVDGVPSRFSGSGSGQDYSLTISSLEYEDMGIYYCLQYDAFPYTFGGGTKLEIKR
effect on TF-1 cell proliferation in the presence of GM-CSF [3]: no inhibitory effect

B2: chCD123-6: chimeric antibody: mouse HCVR/LCVR SEQ ID NOs: 28 and 29 with human IgG1 and Kappa constant sequences (antibody, V domains shown)
VH: EFQLQQSGPELVKPGASVKMSCKASGYIFTSSIMHWMKQKPGQGLEWIGYIKPYNDGTKYNEKFKGKATLTSDKSSSTANMELNSLTSEDSAVYYCAREGGNDYYDTMDYWGQGTSVTVSS
VL: DIKMTQSPSSMYASLGERVTITCKASQDINSYLSWFQQKPGKSPKTLIYRVNRLVDGVPSRFSGSGSGQDYSLTISSLEYEDMGIYYCLQYDAFPYTFGGGTKLEIKR
modifications: human IgG1 and kappa constant regions
inhibition of IL-3-dependent proliferation of TF-1 cells (in words) [4]: completely inhibited at 1 nM
effect on TF-1 cell proliferation in the presence of GM-CSF [3]: no inhibitory effect

B3: muCD123-14: murine anti-CD123 monoclonal antibody, HCVR SEQ ID NO: 30, LCVR SEQ ID NO: 31 (antibody, V domains shown)
VH: EVKLVESGGDLVKPGGSLKLSCAASGFTFSNYAMSWVRQNSEKRLEWVATINSGGSFTYYPDSVKGRFTISRDNAKDSLYLQMSSLNSEDTAMYYCARQSEAYYGYDKRTWFAYWGQGTLVTVSS
VL: DILLTQSPAILSVSPGTRVSFSCRASQSVGTSIHWYQQRPNGFPRLLIKYASESISGIPSRFSGSGSGTDFTLNINSVESEDIADYYCQQSKSWPLTFGAGTKLELKR
effect on TF-1 cell proliferation in the presence of GM-CSF [3]: no inhibitory effect

B4: muCD123-3: murine anti-CD123 monoclonal antibody, HCVR SEQ ID NO: 26, LCVR SEQ ID NO: 27 (antibody, V domains shown)
VH: EFQLQQSGPEVVKPGASVKMSCKASGYTFTSYVMHWMKQKPGQGLEWIGYIKPYKDGTKYNEKFKGKATLISDKPSSTAYMELSSLTSEDSAVYYCAREGENGYYDAMDYWGQGTSVTVSS
VL: DIQMTQSPSSLSASLGGKVTITCKASQDINKYIAWYQHKPGKGPRLLIHYTSTLQPGIPSRFSGSGSGRDYSFSISNLEPEDIATYYCLQYDNLLYTFGGGTKLELKR
effect on TF-1 cell proliferation in the presence of GM-CSF [3]: no inhibitory effect
